Test results as given in PMC10299588, “Bromotyrosine-Derived Metabolites from a Marine Sponge Inhibit Pseudomonas aeruginosa Biofilms” (International Journal of Molecular Sciences, 2023).
Values after ≈ are worked out from the molar mass of the structure shown. “Also recorded” adds a separate entry of the source. Like-named read-outs stand apart in the source and are kept apart here.

Experiments:
P. aeruginosa = tested on: P. aeruginosa; set-up: method as in PMID 24801877; details: previous work, different culture medium and inoculum possible; cited from earlier work
[1] = tested on: PDO300Δalg8 (alginate deletion mutant); test: Biofilm inhibition assay (OD600 growth and resazurin biofilm viability); format: cell-based, Pseudomonas aeruginosa
Experimental: (§1) Figure 2 Biofilm assays to identify compounds that prevent biofilm formation. Biofilm inhibition assay. P. aeruginosa cultures were seeded into 384-well plates after dispensing compounds and antibiotics. The plates were incubated for 24 h at 37 °C followed by recording bacterial growth (OD600) and measuring the viability of biofilm bacteria using resazurin.
(§2) The overnight cultures at 37 °C in LB medium were washed once with sterile saline 0.9% (w/v) and adjusted to an OD600 of 0.05, and 1% inoculum was transferred into a fresh LB medium. Following incubation at 37 °C, 200 rpm for 6–6.5 h to reach the mid-log phase, the cells were washed once with sterile saline 0.9% and diluted to an OD600 of 0.01. Then, 45 µL aliquots were dispensed into 384-well plates (Greiner Bio-One, Kremsmünster, Austria, catalog no. 781091). In biofilm inhibition assays, test compounds (5 µL) were loaded prior to the addition of bacteria. The plates were incubated for 24 h at 37 °C in static conditions. The effects of compounds on bacterial growth and viability of biofilm bacteria were determined by the OD600 and resazurin metabolic assay, respectively. The final concentrations of DMSO in the assays were 1–2%. The negative controls or untreated cultures consisted of inoculum and different concentrations of DMSO. Antibiotic ciprofloxacin (0.25 µg/mL and 25 µg/mL) was used as positive controls. The initial OD600 and final OD600 were read before incubation at 37 °C and after 24 h incubation, respectively, followed by assessment of biofilm viability by resazurin metabolic assay. The experiments were carried out with three technical replicates and repeated at least twice. The growth inhibition was calculated as a function of the percentage of the total bacterial inhibition using Equation (1), where AB is the OD600 of LB medium, and AT0 and ATf are the OD600 recorded at inoculating time and at the end of the assay. (1) % Inhibition=100 × [ 1 − [OD600 (Asample Tf− Asample T0)−(AB Tf − AB T0)/OD600 (Anegative control Tf− Anegative control T0)−(AB Tf − AB T0)]]
(§3) Resazurin sodium salt (Sigma-Aldrich, St. Louis, MI, USA) was dissolved in Milli-Q water at 0.2% (w/v) and filter sterilized. The solution was stored at −20 °C in the dark. The assay was performed as previously described with modification. The cultures were withdrawn, and the plates were washed three times with sterile water using the plate washer (BioTek). To remove the remaining water in the wells, the plates were tapped with autoclaved paper towels. An amount of 50 µL of diluted RSZ solution in LB medium was added into each well, followed by incubation at 37 °C for 5–6 h. A microplate reader (BioTek Synergy 2) was used to measure the fluorescence intensity (excitation 530 nm, emission 590 nm). Data collected were determined as a function of fluorescence percentage using Equation (2), where FB is the fluorescence of the diluted RSZ solution in LB medium in the absence of P. aeruginosa cells. (2) % Inhibition=[(Fnegative control −FB )−(Fsample −FB )/(Fnegative control − FB )]×100

[2] = tested on: PAO1ΔpelF (Pel deletion mutant); test: as above; format: cell-based, Pseudomonas aeruginosa
Experimental: as §1, §2, §3

[3] = tested on: PDO300 (mucoid, alginate-overproducing mutant); test: as above; format: cell-based, Pseudomonas aeruginosa
Experimental: as §1, §2, §3

[4] = tested on: wild-type P. aeruginosa PAO1; test: as above; format: cell-based, Pseudomonas aeruginosa
Experimental: as §1, §2, §3

PDO300 biofilms = test: Fluorescence microscopy of biofilms (SYTO9/propidium iodide); format: cell-based, Pseudomonas aeruginosa; details: for biofilm after treatment: compound alone
Experimental: (§4) Biofilms of wild-type PAO1 and isogenic biofilm matrix component mutants were treated with ianthelliformisamines or ciprofloxacin alone and the combinations. Their biofilms were simultaneously stained with SYTO9 (green) and propidium iodide (red). Cells with intact membranes were stained green, while cells with compromised membranes were stained red.
(§5) For biofilm bacteria imaging, bacteria were cultured, treated with test compounds, and washed, as previously mentioned in the biofilm inhibition assay. The biofilm bacteria were stained using a LIVE/DEAD BacLight bacterial viability kit (Molecular Probes, Inc., Eugene, OR, USA), which consists of SYTO9 (green; staining cells with intact membrane) and propidium iodide (red; staining cells with compromised membrane). Images were captured using a high-content imaging system Operetta CLS (Perkin Elmer, Waltham, MA, USA) with a 60× water-immersion objective.

PAO1ΔpslA biofilms = test: as above; format: cell-based, Pseudomonas aeruginosa
Experimental: as §4, §5

PAO1 biofilms = test: as above; format: cell-based, Pseudomonas aeruginosa
Experimental: as §4, §5

[5] = Stability in liver microsomes; format: in vitro ADME, human; details: for half-life at 1 µM: both sexes, human, liver microsomes
Experimental: The metabolic assays were performed based on a previously described method. […] The final organic (ACN) concentration in the incubation tubes was 1%. […] Samples (50 μL) were removed at t = 0 (immediately after reaction start), 5, 10, 20, 30, and 60 min. Samples were added to microcentrifuge tubes containing 150 μL of ice-cold acetonitrile containing internal standard (clotrimazole; for […] = 10.0 ng/mL + 0.5% (v/v) formic acid; for 1 and 2 = 2.0 ng/mL + 0.5% (v/v) formic acid; for VPL = 20.0 ng/mL + 0.1% (v/v) formic acid). Tubes were centrifuged (13,000× g, 5 min), and ~135 μL of supernatant transferred to polypropylene 96-well plates for analysis.
Chromatographic separation was achieved using a biphenyl column [Kinetix, 100 mm × 4.6 mm, 2.6 μm; Phenomenex (Sydney, Australia)], coupled with a gradient elution with mobile phases containing acetonitrile/H2O/0.5% formic acid. Analysis was conducted in positive ion multiple reaction monitoring (MRM) mode with argon as the collision gas. Optimum MS/MS conditions were established prior to incubations by direct infusion of individual solutions of 1, 2, and 3 into the LC-MS/MS. To ensure adequate sensitivity of analysis, multiple mass transitions were summed for all three test compounds.
LN % remaining vs. time data for each data set were fitted to an exponential decay function to determine the first-order rate constant (k) for substrate depletion. For Equations (5)–(7), scaling parameters used were described elsewhere.

PAO1ΔpelF biofilms = format: cell-based, Pseudomonas aeruginosa
Experimental: as §4, §5

[6] = compound 86.2 µg/mL + ciprofloxacin 1/3 MIC (0.083 µg/mL), 24 h
[7] = in combination with ciprofloxacin
[8] = compound alone (1 86.2, 2 69.1, 3 53.1/106.2 µg/mL)
[9] = compound 69.1 µg/mL + ciprofloxacin 1/4 MIC (0.0625 µg/mL)

SMILES: COc1c(Br)cc(/C=C/C(=O)NCCCNCCCCNCCCN)cc1Br [Compound 1, ianthelliformisamine A]
- MIC (P. aeruginosa): 172.4 µg/mL (≈ 331 µM)
- activity against biofilm bacteria [1]: < 60%
- effect on planktonic counterparts [1]: significant death
- growth disruption [2, 6]: > 90%
- prevention of biofilm formation [2, 6]: > 90%
- biofilm effect ([3]; compound 43.1 µg/mL + ciprofloxacin 1/3 and 1/4 MICs): approximately 100%
- biofilm effect ([3]; compound alone at 43.1 µg/mL): 20%
- growth inhibition ([3]; compound alone at 43.1 µg/mL and 86.2 µg/mL): > 70%
- reduction of biofilm formation ([3]; compound alone at 86.2 µg/mL): ~ 80%
- growth disruption [4, 6]: > 90%
- prevention of biofilm formation [4, 6]: > 90%
- antimicrobial activity / prevention of biofilm formation ([4]; compound alone, 24 h): did not yield any antimicrobial activity and/or prevented biofilm formation
- effect in combination with ciprofloxacin (PDO300 biofilms): synergistic effects
- biofilm after treatment (PDO300 biofilms): slightly reduced
- biofilm after treatment (PAO1ΔpslA biofilms; [7]): eradicated
- interaction with ciprofloxacin on biofilms (PAO1 biofilms): synergistically
- biofilm after treatment (PAO1 biofilms; compound 86.2 µg/mL + ciprofloxacin 1/3 MIC): Complete biofilm inhibition
- biofilm after treatment (PAO1 biofilms; [8]): remained unaffected
- metabolic stability [5]: substantial instability; also recorded: significant instability
- effect in combination with ciprofloxacin (PAO1ΔpelF biofilms): synergistic effects

SMILES: COc1c(Br)cc(/C=C/C(=O)NCCCNCCCCN)cc1Br [Compound 2, ianthelliformisamine B]
- MIC (P. aeruginosa): > 138.2 µg/mL
- survival compromised ([1]; compound + ciprofloxacin at 1/3 MIC): 60%
- survival compromised ([1]; compound + ciprofloxacin at 1/4 MIC): 40%
- susceptibility of biofilms ([1]; compound + ciprofloxacin at 1/4 and 1/3 MIC): much less susceptible
- improvement of biofilm suppression by addition of ciprofloxacin ([2]; ciprofloxacin 1/3 MIC added): 20%
- improvement of biofilm suppression by addition of ciprofloxacin ([2]; ciprofloxacin 1/4 MIC added): 13%
- growth inhibition and antibiofilm activity [2, 9]: caused growth inhibition and antibiofilm activity
- blockage of cellular progression (growth) ([3]; compound alone): > 50%
- blockage of cellular progression (growth) ([3]; in the presence of ciprofloxacin at 1/3 and 1/4 MICs): > 70%
- growth inhibition and antibiofilm activity [4, 9]: caused growth inhibition and antibiofilm activity
- antimicrobial activity / prevention of biofilm formation ([4]; compound alone, 24 h): did not yield any antimicrobial activity and/or prevented biofilm formation
- effect in combination with ciprofloxacin (PDO300 biofilms): synergistic effects
- biofilm after treatment (PDO300 biofilms): slightly reduced
- biofilm after treatment (PAO1ΔpslA biofilms; [7]): eradicated
- interaction with ciprofloxacin on biofilms (PAO1 biofilms): no effect
- biofilm after treatment (PAO1 biofilms; [8]): remained unaffected
- metabolic stability [5]: moderate degradation; also recorded: moderately degraded
- half-life at 1 µM ([5]; pH 7.4, no NRS, 30-min incubation, read-out: half-life of degradation, negative control (no NRS added)): 1.72 h
- half-life at 1 µM ([5]; pH 7.4, with NADPH regeneration system, 1.0 µM, 0.5 mg/mL microsomes, read-out: half-life of degradation): 0.595 ± 0.035 h
- hepatic extraction ([5]; calculated from microsomal half-life, fu = 1 assumed): 0.61
- level of hepatic extraction ([5]; classification system of Houston 1994): intermediate
- effect in combination with ciprofloxacin (PAO1ΔpelF biofilms): synergistic effects

SMILES: COc1c(Br)cc(/C=C/C(=O)NCCCNCCCCNCCCNC(=O)/C=C/c2cc(Br)c(OC)c(Br)c2)cc1Br [Compound 3, ianthelliformisamine C]
- MIC (P. aeruginosa): ~ 26.55 µg/mL
- effect on free-living cells ([1]; compound alone): eradicated
- reduction of biofilm viability ([1]; compound alone): 80%
- biofilm response (reduction) ([2]; combinations of compound with ciprofloxacin): ~ 60%
- synergistic interaction with ciprofloxacin, planktonic forms and biofilms ([2]; compound 53.1 µg/mL): negligible synergistic interactions
- interaction with ciprofloxacin on biofilm ([2]; compound 106.2 µg/mL, ciprofloxacin 1/4 MIC): antagonized
- biofilm response (reduction) ([2]; compound alone 106.2 µg/mL): ~ 40%
- planktonic growth inhibition ([2]; compound alone 106.2 µg/mL): independently inhibited planktonic growth
- effect on free-living cells ([3]; compound alone): eradicated
- reduction of biofilm viability ([3]; compound alone): ~ 100%
- synergistic interaction with ciprofloxacin, planktonic forms and biofilms ([4]; compound 53.1 µg/mL): negligible synergistic interactions
- planktonic growth inhibition ([4]; compound alone 106.2 µg/mL): independently inhibited planktonic growth
- killing of biofilm bacteria ([4]; compound alone, 24 h): ≤ 60%
- killing of free-living bacteria ([4]; compound alone, 24 h): up to 30%
- biofilm after treatment (PDO300 biofilms): completely eradicated
- biofilm after treatment (PAO1ΔpslA biofilms; alone): completely dispersed the biofilm
- interaction with ciprofloxacin on biofilms (PAO1 biofilms): antagonistically
- biofilm after treatment (PAO1 biofilms; [8]): slightly reduced
- metabolic stability [5]: metabolically stable
- effect in combination with ciprofloxacin (PAO1ΔpelF biofilms): no effect
- biofilm after treatment (PAO1ΔpelF biofilms; compound alone): no effect
